Measured values: PubChem BioAssay AID248 (DTP/NCI, 2004)
“And” between values parts separate entries of the source, which are not always exact repeats. Identical values can stand only once. Toxic doses and inconclusive results are not listed.

Tested on: L1210 leukemia ip in BDF1 mice, survival T/C
Experiment: NCI In Vivo Anticancer Drug Screen. Data for tumor model L1210 Leukemia (intraperitoneal) in B6D2F1 (BDF1) mice
Details: endpoint: mean survival time, higher = longer survival
Method in brief: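 Survival endpoint. Drug-treated group vs vehicle group, expressed as T divided by C. Tumor passaged by transplantation.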

[1] = dose: 100.0 mg/kg/injection, schedule: Q01DX009 (ip), vehicle: Klucel (hydroxypropylcellulose) (HPC)
[2] = dose: 100.0 mg/kg/injection, schedule: Q04DX003 (ip), vehicle: Klucel (hydroxypropylcellulose) (HPC)
[3] = dose: 200.0 mg/kg/injection, schedule: Q01DX009 (ip), vehicle: Klucel (hydroxypropylcellulose) (HPC)
[4] = dose: 200.0 mg/kg/injection, schedule: Q04DX003 (ip), vehicle: Klucel (hydroxypropylcellulose) (HPC)
[5] = dose: 400.0 mg/kg/injection, schedule: Q01DX009 (ip), vehicle: Klucel (hydroxypropylcellulose) (HPC)
[6] = dose: 400.0 mg/kg/injection, schedule: Q04DX003 (ip), vehicle: Klucel (hydroxypropylcellulose) (HPC)
[7] = dose: 100.0 mg/kg/injection, schedule: Q01DX001 (ip), vehicle: Klucel (hydroxypropylcellulose) (HPC)
[8] = dose: 200.0 mg/kg/injection, schedule: Q01DX001 (ip), vehicle: Klucel (hydroxypropylcellulose) (HPC)
[9] = dose: 400.0 mg/kg/injection, schedule: Q01DX001 (ip), vehicle: Klucel (hydroxypropylcellulose) (HPC)
[10] = dose: 100.0 mg/kg/injection, schedule: Q04DX002 (ip), vehicle: Klucel (hydroxypropylcellulose) (HPC)
[11] = dose: 200.0 mg/kg/injection, schedule: Q04DX002 (ip), vehicle: Klucel (hydroxypropylcellulose) (HPC)
[12] = dose: 400.0 mg/kg/injection, schedule: Q04DX002 (ip), vehicle: Klucel (hydroxypropylcellulose) (HPC)

`Cc1nonc1C(=O)N(C)C` was tested, and the T/C (dose: 25.0 mg/kg/injection, schedule: Q04DX002 (ip), vehicle: saline) was 98 % of control, the T/C (dose: 50.0 mg/kg/injection, schedule: Q04DX002 (ip), vehicle: saline) was 102 % of control and the T/C (dose: 100.0 mg/kg/injection, schedule: Q04DX002 (ip), vehicle: saline) was 102 % of control.

For `OC(CBr)c1ccc(Cl)c(Cl)c1` (configuration not stated), the T/C [1] was 103 % of control, the T/C [2] was 97 % of control and the T/C [3] was 105 % of control. The T/C [4] was 103 % of control, the T/C [5] was 97 % of control and the T/C [6] was 103 % of control.

For `CN(C)C(=S)Oc1ccc(C(C)(C)C)cc1`, the T/C [7] was 96 % of control, the T/C [8] was 98 % of control and the T/C [9] was 90 % of control.

`C=CCN(c1ccccc1)P(=O)(N1CC1)N1CC1` was tested, and the T/C (dose: 100.0 mg/kg/injection, schedule: Q01DX001 (ip), vehicle: carboxymethylcellulose (CMC)) was 96 % of control, the T/C (dose: 200.0 mg/kg/injection, schedule: Q01DX001 (ip), vehicle: carboxymethylcellulose (CMC)) was 96 % of control and the T/C (dose: 400.0 mg/kg/injection, schedule: Q01DX001 (ip), vehicle: carboxymethylcellulose (CMC)) was 96 % of control.

For `COc1cc(-c2ccc(-[n+]3nc(-c4ccc([N+](=O)[O-])cc4)nn3-c3ccc([N+](=O)[O-])cc3)c(OC)c2)ccc1-[n+]1nc(-c2ccc([N+](=O)[O-])cc2)nn1-c1ccc([N+](=O)[O-])cc1`, the T/C (dose: 15.0 mg/kg/injection, schedule: Q01DX001 (ip), vehicle: carboxymethylcellulose (CMC)) was 89 % of control, the T/C (dose: 30.0 mg/kg/injection, schedule: Q01DX001 (ip), vehicle: carboxymethylcellulose (CMC)) was 104 % of control and the T/C (dose: 60.0 mg/kg/injection, schedule: Q01DX001 (ip), vehicle: carboxymethylcellulose (CMC)) was 93 % of control.

`O=C1CN=C(c2ccccn2)c2cc(Br)ccc2N1` was tested, and the T/C (dose: 3.1 mg/kg/injection, schedule: Q03HX024 (ip), vehicle: Klucel (hydroxypropylcellulose) (HPC)) was 98 % of control, the T/C (dose: 6.2 mg/kg/injection, schedule: Q03HX024 (ip), vehicle: Klucel (hydroxypropylcellulose) (HPC)) was 100 % of control and the T/C (dose: 12.5 mg/kg/injection, schedule: Q03HX024 (ip), vehicle: Klucel (hydroxypropylcellulose) (HPC)) was 98 % of control. The T/C (dose: 25.0 mg/kg/injection, schedule: Q03HX024 (ip), vehicle: Klucel (hydroxypropylcellulose) (HPC)) was 94 % of control, the T/C (dose: 50.0 mg/kg/injection, schedule: Q03HX024 (ip), vehicle: Klucel (hydroxypropylcellulose) (HPC)) was 97 % of control and the T/C [7] was 96 % of control. The T/C [1] was 94 % of control, the T/C [10] was 101 % of control and 109 % of control and the T/C [2] was 101 % of control. For the same molecule, the T/C (dose: 119.0 mg/kg/injection, schedule: Q01DX001 (ip), vehicle: Klucel (hydroxypropylcellulose) (HPC)) was 98 % of control, the T/C (dose: 178.0 mg/kg/injection, schedule: Q01DX001 (ip), vehicle: Klucel (hydroxypropylcellulose) (HPC)) was 98 % of control and the T/C [8] was 93 % of control. For the same molecule, the T/C [3] was 106 % of control, the T/C [11] was 93 % of control and 98 % of control and the T/C [4] was 97 % of control. For the same molecule, the T/C (dose: 266.0 mg/kg/injection, schedule: Q01DX001 (ip), vehicle: Klucel (hydroxypropylcellulose) (HPC)) was 89 % of control, the T/C [9] was 96 % of control and the T/C [5] was 96 % of control. For the same molecule, the T/C [12] was 92 % of control, the T/C [6] was 101 % of control and the T/C (dose: 600.0 mg/kg/injection, schedule: Q01DX001 (ip), vehicle: Klucel (hydroxypropylcellulose) (HPC)) was 106 % of control.

For `CC1CC(=O)c2ccccc2N1S(C)(=O)=O` (configuration not stated), the T/C [1] was 95 % of control, the T/C [2] was 102 % of control and the T/C [3] was 95 % of control. The T/C [4] was 102 % of control, the T/C [5] was 101 % of control and the T/C [6] was 94 % of control.

`NC(Cc1c[nH]c2cc(N(CCCl)CCCl)ccc12)C(=O)O` (configuration not stated) was tested, and the T/C (dose: 0.25 mg/kg/injection, schedule: Q01DX Z (ip), vehicle: other) was 171 % of control, the T/C (dose: 0.5 mg/kg/injection, schedule: Q01DX Z (ip), vehicle: other) was 188 % of control and the T/C (dose: 125.0 micrograms/kg/injection, schedule: Q01DX009 (ip), vehicle: carboxymethylcellulose (CMC)) was 118 % of control. The T/C (dose: 500.0 micrograms/kg/injection, schedule: Q01DX009 (ip), vehicle: carboxymethylcellulose (CMC)) was 167 % of control and the T/C (dose: 1000.0 micrograms/kg/injection, schedule: Q01DX009 (ip), vehicle: carboxymethylcellulose (CMC)) was 229 % of control.

With `CC(=O)Nc1ccc(SC(Sc2ccc(NC(C)=O)cc2)c2ccccc2)cc1` the T/C (dose: 100.0 mg/kg/injection, schedule: Q01DX001 (ip), vehicle: saline) was 92 % of control, the T/C (dose: 200.0 mg/kg/injection, schedule: Q01DX001 (ip), vehicle: saline) was 92 % of control and the T/C (dose: 400.0 mg/kg/injection, schedule: Q01DX001 (ip), vehicle: saline) was 92 % of control.

With `CCNC(=O)c1cc(NCC)nc(Cl)n1` the T/C [2] was 97 % of control, the T/C [4] was 94 % of control and the T/C [6] was 101 % of control.

For `c1ccc(C2OC2c2ccccc2)cc1` (configuration not stated), the T/C [1] was 98 % of control, the T/C [10] was 107 % of control and the T/C [2] was 110 % of control. The T/C [3] was 102 % of control, the T/C [11] was 110 % of control and the T/C [4] was 100 % of control. The T/C [5] was 104 % of control, the T/C [12] was 93 % of control and the T/C [6] was 109 % of control.

With `O=C(O)C1OC1(c1cccc(Cl)c1)c1ccccc1Cl` (configuration not stated) the T/C (dose: 100.0 mg/kg/injection, schedule: Q01DX001 (ip), vehicle: olive oil, sesame oil, peanut oil) was 101 % of control and the T/C (dose: 200.0 mg/kg/injection, schedule: Q01DX001 (ip), vehicle: olive oil, sesame oil, peanut oil) was 106 % of control.

For `Nc1nc(-c2ccccc2)c(CCCOc2ccccc2)c(=O)[nH]1`, the T/C (dose: 12.5 mg/kg/injection, schedule: Q01DX009 (ip), vehicle: gum acacia) was 95 % of control, the T/C (dose: 25.0 mg/kg/injection, schedule: Q01DX009 (ip), vehicle: gum acacia) was 109 % of control and the T/C (dose: 50.0 mg/kg/injection, schedule: Q01DX009 (ip), vehicle: gum acacia) was 100 % of control. The T/C (dose: 100.0 mg/kg/injection, schedule: Q01DX009 (ip), vehicle: gum acacia) was 92 % of control and 90 % of control and the T/C (dose: 400.0 mg/kg/injection, schedule: Q01DX009 (ip), vehicle: gum acacia) was 96 % of control.

`C=CCc1cnc(C(F)(F)F)[nH]c1=O` was tested, and the T/C (dose: 25.0 mg/kg/injection, schedule: Q01DX001 (ip), vehicle: Klucel (hydroxypropylcellulose) (HPC)) was 93 % of control, the T/C (dose: 50.0 mg/kg/injection, schedule: Q01DX001 (ip), vehicle: Klucel (hydroxypropylcellulose) (HPC)) was 94 % of control and the T/C [7] was 94 % of control.

With `Cc1ccc(C(=O)C=Nc2ccccc2[N+](=O)[O-])cc1` the T/C (dose: 12.5 mg/kg/injection, schedule: Q04DX002 (ip), vehicle: Klucel (hydroxypropylcellulose) (HPC)) was 105 % of control, the T/C (dose: 25.0 mg/kg/injection, schedule: Q04DX002 (ip), vehicle: Klucel (hydroxypropylcellulose) (HPC)) was 108 % of control and the T/C (dose: 50.0 mg/kg/injection, schedule: Q04DX002 (ip), vehicle: Klucel (hydroxypropylcellulose) (HPC)) was 123 % of control.

With `O=C(NCCCCCCCCCCNC(=O)Nc1ccc(C2=NCCCN2)cc1)Nc1ccc(C2=NCCCN2)cc1` the T/C (dose: 3.12 mg/kg/injection, schedule: Q01DX Z (ip), vehicle: carboxymethylcellulose (CMC)) was 108 % of control, the T/C (dose: 6.25 mg/kg/injection, schedule: Q01DX Z (ip), vehicle: carboxymethylcellulose (CMC)) was 111 % of control and the T/C (dose: 9.5 mg/kg/injection, schedule: Q01DX001 (ip), vehicle: other) was 101 % of control. The T/C (dose: 19.0 mg/kg/injection, schedule: Q01DX001 (ip), vehicle: other) was 110 % of control, the T/C (dose: 25.0 mg/kg/injection, schedule: Q01DX Z (ip), vehicle: carboxymethylcellulose (CMC)) was 122 % of control and the T/C (dose: 38.0 mg/kg/injection, schedule: Q01DX001 (ip), vehicle: other) was 101 % of control.

With `N#CC12C(=O)C3C4C=CC(C4)C3C(=O)C1(C#N)C1C=CC2C1` (configuration not stated) the T/C (dose: 100.0 mg/kg/injection, schedule: Q04DX003 (ip), vehicle: saline with Tween-80) was 94 % of control and the T/C (dose: 200.0 mg/kg/injection, schedule: Q04DX003 (ip), vehicle: saline with Tween-80) was 92 % of control.

For `CCCCCCC[n+]1ccc(C(=O)c2ccccc2)cc1`, the T/C (dose: 75.0 mg/kg/injection, schedule: Q01DX001 (ip), vehicle: carboxymethylcellulose (CMC)) was 96 % of control and the T/C (dose: 300.0 mg/kg/injection, schedule: Q01DX001 (ip), vehicle: carboxymethylcellulose (CMC)) was 105 % of control.

In the case of `O=C(Cc1ccccc1)NCc1ccco1`, the T/C (dose: 25.0 mg/kg/injection, schedule: Q01DX009 (ip), vehicle: Klucel (hydroxypropylcellulose) (HPC)) is reported as 100 % of control, the T/C (dose: 50.0 mg/kg/injection, schedule: Q01DX009 (ip), vehicle: Klucel (hydroxypropylcellulose) (HPC)) is reported as 94 % of control and the T/C [10] is reported as 90 % of control.

`CCN(CC)CCN(CCN(CC)CC)c1ccc2ccccc2c1` was tested, and the T/C (dose: 75.0 mg/kg/injection, schedule: Q01DX001 (ip), vehicle: acetone) was 111 % of control.
